Data set [1] concerns Cryptococcus neoformans B66663. Kind of data set: Antifungal activity in vitro (resazurin susceptibility screen), Inf. F. It is filed as cell-based. The note with it: 37 °C, 24 hours, resa time 4 hours; for IC50: Cryptococcus neoformans, B66663, Cryptococcus neoformans B66663; for pIC50 Inf. F: Cryptococcus neoformans B66663. Here is the method:
(§1) The standard susceptibility screen was performed in 96-well plates (U-bottom, Greiner Bio-One). Serial dilutions (2-fold or 4-fold) of 20 mM compound stock solutions were made in 100% DMSO, followed by an intermediate dilution step in water. These serial dilutions (10 μl) were then spotted onto test-plates that could be stored in the dark at 4° C. for a maximum period of 2 weeks. An adequate broad dose-range was included with 64 μM as the highest in-test concentration. The culture medium RPMI-1640 was supplemented with L-glutamine, 2% glucose and buffered with 3-(N-morpholino)-propanesulfonic acid (MOPS) at pH 7.0±0.1. The different fungal species/isolates (Table 3a) were cryopreserved and 1/1000 diluted in medium just prior to use. A standard inoculum of 200 μl containing 10^3 colony-forming unit (cfu) was then added to each well. A positive control (100% growth=fungal culture without antifungal) and a negative control (0% growth=RPMI-MOPS medium) were included on each plate. Optimal incubation time and temperature were dependent on the fungal species and vary from 24 h for yeasts (37° C.) to one week or more for dermatophytes (27° C.). Inhibition of fungal growth was measured after adding 10 μl of 0.005% (w/v) resazurin (Sigma Aldrich) to each well, based on the principle that living cells convert the non-fluorescent blue resazurin into the pink and fluorescent resorufin, allowing fluorimetric reading (λhd ex 550 nm and μem 590 nm) after an additional incubation period (‘resa’ time mentioned in Table 3a). [table]

Data set [2] relates to Microsporum canis B68128. In words: Antifungal activity in vitro (resazurin susceptibility screen), Inf. B. It is filed as cell-based. The note with it: 27 °C, 9 days, resa time 24 hours; for IC50: Microsporum canis, B68128, Microsporum canis B68128; for pIC50 Inf. B: Microsporum canis B68128. Here is the method:
as §1

Data set [3] deals with Rhizomucor miehei IHEM13391. In words: Antifungal activity in vitro (resazurin susceptibility screen), Inf. K. The note with it: 37 °C, 48 hours, resa time 17 hours; for IC50: Rhizomucor miehei, IHEM13391, Rhizomucor miehei IHEM13391. It is filed as cell-based. As to the method:
as §1

For data set [4], the system named is Scedosporium apiospermum IHEM3817. In words: Antifungal activity in vitro (resazurin susceptibility screen), Inf. H. Type of data set: cell-based. The note with it: 37 °C, 48 hours, resa time 17 hours; for IC50: Scedosporium apiospermum, IHEM3817, Scedosporium apiospermum IHEM3817. As to the method: as §1
Data set [5] deals with Aspergillus fumigatus B42928. Kind of data set: Antifungal activity in vitro (resazurin susceptibility screen), Inf. E. The note with it: 27 °C, 48 hours, resa time 17 hours; for IC50: Aspergillus fumigatus, B42928, Aspergillus fumigatus B42928; for pIC50 Inf. E: Aspergillus fumigatus B42928. It is filed as cell-based. Here is the method:
as §1

The subject of data set [6] is Candida parapsilosis B66126. Kind of data set: Antifungal activity in vitro (resazurin susceptibility screen), Inf. D. It is filed as cell-based. The conditions noted are these: 37 °C, 24 hours, resa time 4 hours; for IC50: Lodderomyces parapsilosis, B66126, Candida parapsilosis B66126; for pIC50 Inf. D: Candida parapsilosis B66126. As to the method:
as §1

Data set [7] has as its system Trichophyton mentagrophytes B70554. Kind of data set: Antifungal activity in vitro (resazurin susceptibility screen), Inf. G. The note with it: 27 °C, 7 days, resa time 24 hours; for IC50: Trichophyton mentagrophytes, B70554, Trichophyton mentagrophytes B70554; for pIC50 Inf. G: Trichophyton mentagrophytes B70554. Type of data set: cell-based. Here is the method:
as §1

In data set [8] the test system is Rhizopus oryzae IHEM5223. In words: Antifungal activity in vitro (resazurin susceptibility screen), Inf. J. Type of data set: cell-based. The note with it: Rhizopus arrhizus, 37 °C, 24 hours, resa time 6 hours. Here is the method:
as §1

For data set [9], the system named is Mucor circinelloides IHEM21105. Kind of data set: Antifungal activity in vitro (resazurin susceptibility screen), Inf. L. Type of data set: cell-based. The conditions noted are these: 27 °C, 48 hours, resa time 17 hours. As to the method:
as §1

Data set [10] deals with Trichophyton rubrum B68183. Kind of data set: Antifungal activity in vitro (resazurin susceptibility screen), Inf. C. Type of data set: cell-based. The conditions noted are these: 27 °C, 7 days, resa time 24 hours; for IC50: Trichophyton rubrum, B68183, Trichophyton rubrum B68183; for pIC50 Inf. C: Trichophyton rubrum B68183. Here is the method: as §1
Data set [11] relates to Sporothrix schenkii B62482. In words: Antifungal activity in vitro (resazurin susceptibility screen), Inf. A. Type of data set: cell-based. The conditions noted are these: 27 °C, 4 days, resa time 24 hours; for IC50: Sporothrix, B62482, Sporothrix schenkii B62482; for pIC50 Inf. A: Sporothrix schenkii B62482. Here is the method:
as §1

The subject of data set [12] is Scedosporium prolificans IHEM21157. Kind of data set: Antifungal activity in vitro (resazurin susceptibility screen), Inf. I. The note with it: Lomentospora prolificans, 37 °C, 48 hours, resa time 17 hours. Type of data set: cell-based. As to the method: as §1

Where only a bound is given, the exact number is not on record here.

As to `CC(F)(F)c1ccc(C2=NCc3cc(Cl)cc(Cl)c3-n3cccc32)cc1` [Compound 6, 8,10-dichloro-4-[4-(1,1-difluoroethyl)phenyl]-6H-pyrrolo[1,2-a][1,4]benzodiazepine], the melting point was in the range of 132.1 to 134.2 °C. In [1], this compound showed an IC50 of 1410 nM. For the same compound, the IC50 in data set [2] is 17400 nM. The same compound had an IC50 in data set [3] above 64.6 µM. Moreover, the 50% inhibitory concentration (IC50) in data set [4] was above 64600 nM. The half-inhibitory concentration (IC50) in [5] was 933 nM. Further, the half-inhibitory concentration (IC50) in [6] was above 64600 nM. Further, the half-maximal inhibitory concentration (IC50) in [7] is 2450 nM. For the same compound, in [8], the concentration for half-maximal inhibition (IC50) was above 64.6 µM. The compound also gave an IC50 in data set [9] above 64.6 µM. In addition, the IC50 in data set [10] is 5890 nM. In data set [11], this compound gave a concentration for half-maximal inhibition (IC50) of 2.63 µM.
Consider `CC(F)(F)c1ccc(C2=NCc3ccc(Cl)c(Cl)c3-n3cccc32)cc1` [Compound 22, 9,10-dichloro-4-[4-(1,1-difluoroethyl)phenyl]-6H-pyrrolo[1,2-a][1,4]benzodiazepine], for which the melting point lay in the range of 140.9 to 142.1 °C. This compound also had an IC50 in [1] above 64600 nM. In addition, the midpoint of inhibition in [2], the IC50, lay at 7760 nM. For the same compound, the half-inhibitory concentration (IC50) in data set [5] is above 64600 nM. Besides, in [6], the half-inhibitory concentration (IC50) is above 64600 nM. Also, in [7], the half-inhibitory concentration (IC50) was above 64600 nM. In addition, half-maximal inhibition in [10] (IC50) was put at 7760 nM. For the same compound, the IC50 in [11] was above 64.6 µM.
As for `CC(F)(F)c1cc(C2=NCc3c(Cl)cccc3-n3cccc32)ccc1F` [Compound 21, 7-chloro-4-[3-(1,1-difluoroethyl)-4-fluorophenyl]-6H-pyrrolo[1,2-a][1,4]benzodiazepine], the IC50 in data set [1] was 1580 nM; in data set [2], 479 nM; in data set [3], 6.61 µM; in [4], 89.1 nM; in data set [5], 126 nM; in data set [6] it was 2450 nM. Further, the IC50 in [7] was 692 nM; in data set [8], above 64.6 µM; in data set [9] it was above 64.6 µM; in data set [10] it was 195 nM; in data set [11], 3.72 µM; in data set [12] it was 50.1 nM.
Regarding `CC(F)(F)c1ccc(C2NCc3c(Cl)cc(F)cc3-n3cccc32)cc1.Cl` (stereo not drawn) [Compound 24, 7-chloro-4-[4-(1,1-difluoroethyl)phenyl]-9-fluoro-5,6-dihydro-4H-pyrrolo[1,2-a][1,4]-benzodiazepine.HCl], the melting point was 240 to 240.7 °C. The compound also showed an IC50 in data set [1] above 64600 nM. This compound showed a 50% inhibitory concentration (IC50) in [2] of 7760 nM. Moreover, in [5], inhibition was half-maximal at 11500 nM (IC50). Inhibition in [6] was half-maximal at 2630 nM (IC50). Further, the IC50 in data set [7] is 1700 nM. This compound showed a concentration for half-maximal inhibition (IC50) in data set [10] of 617 nM. In data set [11], this compound gave an IC50 above 64.6 µM.
`CC(F)(F)c1ccc(C2NCc3c(Cl)cccc3-n3cccc32)cc1.Cl` [Compound 2, (4S)-7-chloro-4-[4-(1,1-difluoroethyl)phenyl]-5,6-dihydro-4H-pyrrolo[1,2-a][1,4]-benzodiazepine.HCl] came in with a melting point of 206.7 to 207.6 °C. Further, in data set [1], the “pIC50 Inf. F” value is listed as below 4.19. The “pIC50 Inf. B” value in [2] is given as 5.09. The “pIC50 Inf. E” value in data set [5] is on record as below 4.19. Further, in data set [6], the “pIC50 Inf. D” value is recorded as below 4.19. The “pIC50 Inf. G” value in [7] is 5.43. In addition, in [10], the “pIC50 Inf. C” value is 5.82. Further, the “pIC50 Inf. A” value in data set [11] is below 4.19.
Take `CC(F)(F)c1ccc(C2=NCc3c(Cl)cc(F)cc3-n3cccc32)cc1` [Compound 27, 7-chloro-4-[4-(1,1-difluoroethyl)phenyl]-9-fluoro-6H-pyrrolo[1,2-a][1,4]benzodiazepine]: the IC50 was 1020 nM in [1]; 513 nM in data set [2]; 8.32 µM in data set [3]; 437 nM in data set [4]; 501 nM in [5]; 1820 nM in [6]. In addition, the IC50 in data set [7] was 1510 nM; in data set [8] it was above 64.6 µM; in [9] it was above 64.6 µM; in data set [10], 288 nM; in data set [11], 2.45 µM; in data set [12], 100 nM.
For the compound `CC(F)(F)c1cc(C2=NCc3c(F)cccc3-n3cccc32)ccc1F` [Compound 20, 4-[3-(1,1-difluoroethyl)-4-fluorophenyl]-7-fluoro-6H-pyrrolo[1,2-a][1,4]benzodiazepine], the IC50 in [1] was above 64600 nM; in data set [2] it was 513 nM; in data set [3], 26.9 µM; in data set [4] it was 575 nM; in data set [5] it was 112 nM; in data set [6] it was 12900 nM. Moreover, the IC50 in [7] was 794 nM; in [8], above 64.6 µM; in data set [9] it was above 64.6 µM; in data set [10] it was 145 nM; in data set [11] it was above 64.6 µM; in data set [12], 158 nM.
As to `CC(F)(F)c1ccc(C2=NCc3c(F)cccc3-n3cccc32)cc1` [Compound 15, 4-[4-(1,1-difluoroethyl)phenyl]-7-fluoro-6H-pyrrolo[1,2-a][1,4]benzodiazepine], the half-maximal inhibitory concentration (IC50) in data set [1] was above 64600 nM; in data set [2], 490 nM; in data set [3], above 64.6 µM; in [4], above 64600 nM; in [5] it was 224 nM; in data set [6], 631 nM. The IC50 in [7] is 251 nM; in data set [8] it was 33.9 µM; in data set [9], above 64.6 µM; in data set [10] it was 42.7 nM; in data set [11], above 64.6 µM; in [12] it was 2510 nM.
`CC(F)(F)c1ccc(C2NCc3c(Cl)cccc3-n3cccc32)cc1.Cl` [Compound 3, (4R)-7-chloro-4-[4-(1,1-difluoroethyl)phenyl]-5,6-dihydro-4H-pyrrolo[1,2-a][1,4]-benzodiazepine.HCl] had a melting point of 206.3 to 206.8 °C. In addition, in data set [1], the “pIC50 Inf. F” value is on record as 5.26. Moreover, the “pIC50 Inf. B” value in [2] came out at 6.30. Further, the “pIC50 Inf. K” value in data set [3] (Rhizomucor miehei IHEM13391) came to 4.59. In addition, the “pIC50 Inf. H” value in [4] (Scedosporium apiospermum IHEM3817) was 5.13. Also, the “pIC50 Inf. E” value in data set [5] worked out at 5.70. Moreover, in [6], the “pIC50 Inf. D” value amounted to 5.58. Besides, in [7], the “pIC50 Inf. G” value is 6.36. Besides, the “pIC50 Inf. C” value in data set [10] stood at 6.96. Further, the “pIC50 Inf. A” value in [11] is given as below 4.19.
`CC(F)(F)c1ccc(C2=NCc3c(F)cc(F)cc3-n3cccc32)cc1` [Compound 18, 4-[4-(1,1-difluoroethyl)phenyl]-7,9-difluoro-6H-pyrrolo[1,2-a][1,4]benzodiazepine]: the IC50 was 1620 nM in data set [1]; 2140 nM in data set [2]; 50.1 µM in [3]; above 64600 nM in [4]; 501 nM in [5]; 2340 nM in data set [6]. Also, the IC50 in data set [7] was 1100 nM; in [8], above 64.6 µM; in [9] it was above 64.6 µM; in data set [10], 148 nM; in data set [11] it was 8.13 µM; in data set [12] it was 794 nM.
For `CC(F)(F)c1ccc(C2=NCc3c(Cl)ccc(Cl)c3-n3cccc32)cc1` [Compound 8, 7,10-dichloro-4-[4-(1,1-difluoroethyl)phenyl]-6H-pyrrolo[1,2-a][1,4]benzodiazepine], the melting point was 162.3 to 163.5 °C. In data set [1], this compound showed a half-inhibitory concentration (IC50) above 64600 nM. For the same compound, half-maximal inhibition in [2] (IC50) required 3980 nM. The IC50 in data set [5] is above 64600 nM. The compound also gave an IC50 in data set [6] above 64600 nM. The compound further had a half-maximal inhibitory concentration (IC50) in data set [7] of 60300 nM. In addition, in data set [10], half-maximal inhibition (IC50) required 3020 nM. The compound also had an IC50 in data set [11] above 64.6 µM.
